The source of these data is article PMC11267533, “Ligandability at the Membrane Interface of GPx4 Revealed through a Reverse Micelle Fragment Screening Platform” (JACS Au, 2024).

“And” between values parts separate entries of the source, which are not always exact repeats. Identical values can stand only once. Like-named read-outs stand apart in the source and are kept apart here.

For series [1], the target named is T1, GPx4 embedded in a mmRM (membrane-bound GPx4) (Homo sapiens, UniProt P36969, U73G).
T1 construct: Truncated U46G-GPx4 with a TEV cleavable poly-histidine tag was inserted into vector; poly-histidine tag with TEV cleavage site; host or cells: BL21 (DE3) E. coli
T1 sequence (P36969 1-170 isoform P36969-2 U46G): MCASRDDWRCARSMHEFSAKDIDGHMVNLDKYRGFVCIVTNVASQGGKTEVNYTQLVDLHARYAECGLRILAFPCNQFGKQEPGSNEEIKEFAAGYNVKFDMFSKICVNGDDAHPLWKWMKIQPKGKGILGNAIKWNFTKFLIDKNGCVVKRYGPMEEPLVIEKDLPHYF
The series is described as follows: NMR (15N-HSQC) titration of fragments against GPx4 embedded in DLPC/DPC mmRM, apparent Kd. It is filed as binding. Particulars: ± standard error of global Kd fit. The text has this: To assess whether the fragment hits are bound specifically to GPx4 and to calculate affinity, we performed NMR-based titrations. Chemical shift changes that approach saturation in a structurally localized manner target indicate specific binding.[24] This allows true positive hits to be separated from false positives and weak or nonspecific binders. Additionally, NMR-based titrations allow for the extraction of a binding affinity (Kd). To calculate apparent Kd values, CSP cutoffs were used to isolate the resonances with most shifting using 1 standard deviation above the average CSP. All 14 fragments identified from the deconvolutions were titrated up to 400 μM or 1 mM if needed. Of the 14, 9 had apparent Kds less than 1 mM and were identified as hits. Observed here is a 0.47% hit rate with best affinities in the μM range for the membrane-bound form of GPx4 and is consistent with ligandable and potentially druggable targets.[14],[57] […] The remaining five fragments, 10–14, were ruled out as weaker (>∼1 mM) or nonspecific binders. Weak or nonspecific binding could indicate that fragments partitioning to the mmRM surface and perturb the protein spectrum through a simple change in the chemical environment at the interface, among other possible nonspecific effects. […] We note that the weaker and nonspecific fragments were only eliminated due to interaction modes that are too weak or unproductive for advancement toward inhibitors; yet, binding was nevertheless detected. […] We note here that apparent Kd values reported in this study account for a total amount of fragment and protein within the mmRM sample and are not corrected for any potential concentrating effect due to localization of fragment to the mmRM surface or water phase.
NMR samples were prepared with ^15N-isotopically labeled protein with 10% v/v of d-pentane as the lock solvent (Sigma-Aldrich, St. Louis, MO). All NMR spectra were collected at 25 °C on a 700 MHz Bruker Avance III instrument. All NMR spectra were processed using NMRPipe[66] and analyzed using NMRFAM-Sparky.[67] Chemical shifts for GPx4 (BMRB 50955) were assigned from those previously published.[52] Chemical shift perturbations from ^15N-HSQC spectra were calculated using the following formula [drawing 1] where Δ^1H and Δ^15N are the changes in ^1H and ^15N chemical shifts, respectively.
The 14 fragments isolated from deconvolutions were purchased from Life Chemicals (fragments 1, 4, 6, and 11, and 12–14), Combi-Blocks (2, 3, 5, 9, and 10), or ChemBridge Hit2Lead (7 and 8). All fragment 1 and 5 analogues were also purchased from ChemBridge Hit2Lead. Fragments and analogues purchased from Life Chemicals and Hit2Lead are 90+% pure, while the fragments purchased from Combi-Blocks ranged from 95 to 97% pure. The day prior to the titration, a double-volume sample of encapsulated GPx4 was made before being split up into two separate vials. Half of the sample was added to the vial containing predried fragment corresponding to 400 μM or 1 mM. […] If they were, then the two samples were mixed to produce varying concentrations and to measure a titration curve. The top-shifting resonances were determined by calculating the average CSP at 400 μM or 1 mM and 1 and 2 standard deviations (σ) above that average. The CSP for the resonance at each fragment concentration was extracted and fit to a curve using an affinity equation that accounts for ligand depletion [drawing 2]
Any resonance producing a curve with an R^2 below 0.85 was removed, and the remaining resonances were then used to fit a global apparent Kd curve for the fragment hit. Standard error for Kd from the global fit of all of the selected residues is reported.

Series [2] can be described thus: Fragment partitioning in DHPC/DMPC bicelles by 2D 1H-1H NOESY. It is filed as physicochemical. As to conditions: 5 mM fragment, 100% D2O. The text has this:
To confirm partitioning behavior, we tested fragments in DHPC/DMPC bicelles, which use a bulk aqueous solvent, and the hydrophobic phase is confined to the bicelle interior. To successfully collect NOESY data, the sample solvent was composed of 100% D2O. […] Together, the results highlight the partitioning behavior of fragments that bind to GPx4. Hydrophilic, hydrophobic, or fragments that partition to the surfactant shell are all capable of binding to the membrane-bound state of GPx4 and may be detected using this method.
Partitioning coefficients for fragment hits and analogues were calculated using a Marvin Log D calculator (Chemaxon) and were used to prioritize fragments for 2D NOESYs. mmRMs were premade as previously described and loaded with 5 mM dried fragment 1, 5, or 6 before shaking overnight. A high concentration of fragments is needed for these experiments to observe the intermolecular NOEs between the fragments and the membrane model components. For the DHPC/DMPC samples, the q = 1.0 bicelles were constructed routinely,[55] as described in the Supporting Information, with an additional step to ensure the complete removal of water before experimentation. An aliquot of buffer (100 mM Bis-Tris pH 6.0, 100 mM NaCl, and 10 mM DTT) was frozen and freeze-dried overnight to remove residual water. The dried buffer was then resuspended in 100% D2O, mixed, and frozen before another round of freeze-drying. The components were then resuspended in 100% D2O again before being incorporated into the DHPC fraction of the bicelle. The DHPC solution was then mixed with dried DMPC, and bicelle formation proceeded. The NOESY experimental design was based on a previous work.[60] All NMR spectra were collected at 25 °C on a 700 MHz Bruker Avance III instrument. The 2D data was collected with a 90° pulse width between 10.2 and 11.0 μs, which was optimized prior to each experiment. 128 complex increments were collected in the State-TPPI mode with 8 scans per increment, 2 s recycle time, and 250 ms mixing time. […]

The nature of series [3]: Fragment partitioning in DLPC/DPC mmRMs by 2D 1H-1H NOESY. Format: physicochemical. Particulars: 5 mM fragment, deuterated pentane and hexanol, no GPx4. The procedure:
We sought to understand the potential membrane partitioning of these fragments by evaluating their behavior in mmRMs, again using fragments 1, 5, and 6 as our benchmarks. To evaluate fragment partitioning in the mmRM system, 2D ^1H–^1H NOESY experiments were performed, which report on the spatial proximity of intra- and intermolecular nuclei. […] The mmRMs were constructed from deuterated pentane and hexanol to reduce solvent signal and associated NOESY artifacts, which were still present, but NOESY measurements were possible.[60] […] Fragment 5 was the most hydrophobic fragment hit from this screen with a predicted cLog D of ∼2. […] A lack of NOEs to pentane is due to the necessity of using deuterated pentane for artifact reduction and attempts to directly observe solvent NOEs failed. The most hydrophilic fragment, fragment 6 with a predicted cLog D of about −2, is expected to predominantly have intermolecular interactions with the water phase of the mmRM (Figures 5c and S4c). However, interference from the water peak introduced streaking and precluded the visualization of clear cross-peaks.
Partitioning coefficients for fragment hits and analogues were calculated using a Marvin Log D calculator (Chemaxon) and were used to prioritize fragments for 2D NOESYs. mmRMs were premade as previously described and loaded with 5 mM dried fragment 1, 5, or 6 before shaking overnight. A high concentration of fragments is needed for these experiments to observe the intermolecular NOEs between the fragments and the membrane model components. For the DHPC/DMPC samples, the q = 1.0 bicelles were constructed routinely,[55] as described in the Supporting Information, with an additional step to ensure the complete removal of water before experimentation. An aliquot of buffer (100 mM Bis-Tris pH 6.0, 100 mM NaCl, and 10 mM DTT) was frozen and freeze-dried overnight to remove residual water. The dried buffer was then resuspended in 100% D2O, mixed, and frozen before another round of freeze-drying. […]

The mark [4] stands for this setting: Table 2, analogues of fragment 5, GPx4 in mmRM, read-out: Apparent Kd.
Where [5] appears, read: Table 1, GPx4 in DLPC/DPC mmRM, NMR titration up to 400 μM or 1 mM, read-out: Kd (apparent).

As for `O=c1oc2c(-c3ccc(Cl)c(Cl)c3)cc(O)cc2s1` [Analog 5.5], the Kd in series [1] (setting [4]) was ~30 µM and 30 µM.
Take `O=c1cc(Nc2ccccc2)cc[nH]1` [Fragment 1, 4-(phenylamino)-1,2-dihydropyridin-2-one]: the “Partitioning in bicelles (intermolecular NOEs)” value (from here on “Partitioning in bicelles”) in series [2] is on record as “partitions to the bicelle”. Moreover, the Kd in series [1] (setting [5]) turned out to be 105 ± 30 µM. Also, in series [3], the “Partitioning in mmRM (intermolecular NOEs)” value (“Partitioning in mmRM” for short) is recorded as “clear NOE cross-peaks to the surfactant shell”.
As to `O=c1oc2ccc(O)cc2s1` [Fragment 5, 5-hydroxy-1,3-benzoxathiol-2-one], in series [2], the “Partitioning in bicelles” value is “full partitioning into the hydrophobic core of the bicelles”. Besides, the Kd in series [1] (setting [5]) and in series [1] (setting [4]) was 220 ± 90 µM in each case. Also, the “Partitioning in mmRM” value in series [3] was “the majority of the fragment must reside in the alkane phase of the reverse micelle”.
In the case of `COCCNCc1ccncc1.Cl` [Fragment 6, (2-methoxyethyl)(4-pyridinylmethyl)amine hydrochloride], the “Partitioning in bicelles” value in series [2] is reported as “no NOE cross-peaks to bicelle surfactants were observed”. Also, the Kd in series [1] (setting [5]) turned out to be 230 ± 60 µM. The “Partitioning in mmRM” value in series [3] is “prefers to reside in the water core of the mmRM”.
